Experimental data published in ChEMBL document CHEMBL5370616, “Novel Nitric Oxide Donor-Azole Conjugation Strategy for Efficient Treatment of Cryptococcus neoformans Infections” (J Med Chem, 2023).
Values after ≈ are worked out from the molar mass of the structure shown. Active and inactive are the calls of the source. No cut-off for these calls is given here.

Key:
[1] = system: Cryptococcus neoformans; experiment: Antifungal activity against Cryptococcus neoformans H99 assessed as reduction in fungal growth incubated for 72 hrs by CLSI protocol based microplate reader analysis; format: functional
[2] = system: Candida albicans; experiment: Antifungal activity against Candida albicans 0304103 assessed as reduction in fungal growth incubated for 48 hrs by CLSI protocol based microplate reader analysis; format: functional
[3] = system: Nakaseomyces glabratus; experiment: Antifungal activity against Candida glabrata 10639 assessed as reduction in fungal growth incubated for 48 hrs by CLSI protocol based microplate reader analysis; format: functional
[4] = system: Candida albicans; experiment: Antifungal activity against Candida albicans SC5314 assessed as reduction in fungal growth incubated for 48 hrs by CLSI protocol based microplate reader analysis; format: functional
[5] = system: Cryptococcus neoformans; experiment: Antifungal activity against Cryptococcus neoformans H99 assessed as reduction in fungal growth at 4 ug/ml incubated upto 72 hrs by microplate reader analysis; format: functional, organism-based; settings: dose 4.0 µg/ml
[6] = system: Cryptococcus neoformans; experiment: Antifungal activity against Cryptococcus neoformans H99 assessed as change in internal microstructure by observing sparse capsule at 4 ug/ml incubated for 8 hrs by TEM analysis; format: functional, organism-based; settings: dose 4.0 µg/ml
[7] = system: Cryptococcus neoformans; experiment: Inhibition of CYP51 in Cryptococcus neoformans H99 assessed as increase in other unknown sterol level at 4 ug/ml incubated for 24 hrs by GC-MS analysis (Rvb= 12.49%); settings: dose 4.0 µg/ml
[8] = system: Cryptococcus neoformans; experiment: Disruption of preformed mature biofilm in Cryptococcus neoformans H99 assessed as removal of mature biofilm at 0.125 to 32 ug/ml incubated for 24 hrs by XTT reduction assay; format: functional, organism-based; settings: dose 0.125-32 µg/ml
[9] = system: Cryptococcus neoformans; experiment: Antifungal activity against Cryptococcus neoformans H99 assessed as change in internal microstructure by observing cell membrane damage at 4 ug/ml incubated for 8 hrs by TEM analysis; format: functional, organism-based; settings: dose 4.0 µg/ml
[10] = system: Cryptococcus neoformans; experiment: Inhibition of CYP51 in Cryptococcus neoformans H99 assessed as reduction in ergosterol level at 4 ug/ml incubated for 24 hrs by GC-MS analysis (Rvb= 58.33%); settings: dose 4.0 µg/ml
[11] = system: Cryptococcus neoformans; experiment: Inhibition of CYP51 in Cryptococcus neoformans H99 assessed as increase in lanosterol level at 4 ug/ml incubated for 24 hrs by GC-MS analysis (Rvb= 6.24%); settings: dose 4.0 µg/ml
[12] = system: Cryptococcus neoformans; experiment: Inhibition of CYP51 in Cryptococcus neoformans H99 assessed as decrease in unknown sterol level at 4 ug/ml incubated for 24 hrs by GC-MS analysis (Rvb= 22.95%); settings: dose 4.0 µg/ml
[13] = system: Cryptococcus neoformans; experiment: Antifungal activity against Cryptococcus neoformans H99 assessed as reduction in number of colonies at 0.125 to 1 ug/ml incubated for 72 hrs by agar disk diffusion assay; format: functional; settings: dose 0.125-1 µg/ml
[14] = system: Cryptococcus neoformans; experiment: Inhibition of biofilm formation in Cryptococcus neoformans H99 at 0.25 ug/ml incubated for 24 hrs by XTT reduction assay; format: functional
[15] = system: Cryptococcus neoformans; experiment: Antifungal activity against Cryptococcus neoformans H99 assessed as reduction in fungal growth at 0.25 to 8 ug/ml incubated upto 72 hrs by microplate reader analysis; format: functional, organism-based; settings: dose 0.25-8 µg/ml
[16] = system: Cryptococcus neoformans; experiment: Inhibition of biofilm formation in Cryptococcus neoformans H99 at 16 to 64 ug/ml incubated for 24 hrs by XTT reduction assay; format: functional, organism-based; settings: dose 16-64 µg/ml
[17] = system: Cryptococcus neoformans; experiment: Fungicidal activity against Cryptococcus neoformans H99 assessed as reduction in colony forming units at 4 to 8 ug/ml incubated upto 72 hrs by time-kill assay; format: functional, organism-based; settings: dose 4-8 µg/ml

Row | Compound | MIC80 [1] [mg/L] | MIC80 [2] [mg/L] | MIC80 [3] [mg/L] | MIC80 [4] [mg/L] | also measured
1 | CN(Cc1ccc(OCCCOc2ccc(CC(=O)OCCCCOc3no[n+]([O-])c3S(=O)(=O)c3ccccc3)cc2)cc1)CC(O)(Cn1cncn1)c1ccc(F)cc1F (stereo not drawn) | 4 (≈ 4.64 µM) | > 64 | 4 (≈ 4.64 µM) | 4 (≈ 4.64 µM) | –
2 | CN(Cc1ccc(OCCCOc2ccc(CC(=O)OCC#CCOc3no[n+]([O-])c3S(=O)(=O)c3ccccc3)cc2)cc1)CC(O)(Cn1cncn1)c1ccc(F)cc1F (stereo not drawn) | 2 (≈ 2.33 µM) | > 64 | 2 (≈ 2.33 µM) | 16 (≈ 18.6 µM) | –
3 | CN(Cc1ccc(CNCCCCCOc2no[n+]([O-])c2S(=O)(=O)c2ccccc2)cc1)CC(O)(Cn1cncn1)c1ccc(F)cc1F (stereo not drawn) | 2 (≈ 2.87 µM) | > 64 | 8 (≈ 11.5 µM) | 8 (≈ 11.5 µM) | –
4 | CN(Cc1ccc(OCCCOc2ccc(CC(=O)OCCCCCCOc3no[n+]([O-])c3S(=O)(=O)c3ccccc3)cc2)cc1)CC(O)(Cn1cncn1)c1ccc(F)cc1F (stereo not drawn) | 4 (≈ 4.49 µM) | > 64 | 4 (≈ 4.49 µM) | 8 (≈ 8.98 µM) | –
5 | OC(Cn1cncn1)(Cn1cncn1)c1ccc(F)cc1F [FLUCONAZOLE] | 2 (≈ 6.53 µM) | > 64 | 2 (≈ 6.53 µM) | 0.5 (≈ 1.63 µM) | Activity [5]: inactive; Activity [6]: inactive; inhibition [7]: 21.4%; Activity [8]: inactive; Activity [9]: Active; inhibition [10]: 19.2%; inhibition [11]: 53.9%; inhibition [12]: 5.55%; Activity [13]: inactive
6 | CN(Cc1ccc(OCCCOc2ccc(CC(=O)OCCCO[N+](=O)[O-])cc2)cc1)CC(O)(Cn1cncn1)c1ccc(F)cc1F (stereo not drawn) | 0.125 (≈ 0.187 µM) | > 64 | 1 (≈ 1.49 µM) | 1 (≈ 1.49 µM) | inhibition at 0.25 µg/mL [14]: > 50%; Activity [15]: Dose-Dependent Effect
7 | CN(Cc1ccc(OCCCOc2ccc(CC(=O)OCCCCO[N+](=O)[O-])cc2)cc1)CC(O)(Cn1cncn1)c1ccc(F)cc1F (stereo not drawn) | 0.5 (≈ 0.731 µM) | > 64 | 0.5 (≈ 0.731 µM) | 2 (≈ 2.93 µM) | –
8 | CN(CC(O)(Cn1cncn1)c1ccc(F)cc1F)c1cc(O/N=[N+](\[O-])N(C)CCO)c([N+](=O)[O-])cc1[N+](=O)[O-] (stereo not drawn) | 64 (≈ 113 µM) | > 64 | > 64 | > 64 | –
9 | CN(CC(O)(Cn1cncn1)c1ccc(F)cc1F)c1cc(O/N=[N+](\[O-])N2CCC(O)CC2)c([N+](=O)[O-])cc1[N+](=O)[O-] (stereo not drawn) | 64 (≈ 108 µM) | > 64 | > 64 | > 64 | –
10 | CN(Cc1ccc(OCCCOc2ccc(CC(=O)OCCOCCOc3no[n+]([O-])c3S(=O)(=O)c3ccccc3)cc2)cc1)CC(O)(Cn1cncn1)c1ccc(F)cc1F (stereo not drawn) | 1 (≈ 1.14 µM) | > 64 | 1 (≈ 1.14 µM) | 1 (≈ 1.14 µM) | –
11 | CN(Cc1ccc(OCCCOc2ccc(CC(=O)NCCOc3no[n+]([O-])c3S(=O)(=O)c3ccccc3)cc2)cc1)CC(O)(Cn1cncn1)c1ccc(F)cc1F (stereo not drawn) | 1 (≈ 1.2 µM) | > 64 | 1 (≈ 1.2 µM) | 2 (≈ 2.4 µM) | –
12 | CN(Cc1ccc(OCCCOc2ccc(CC(=O)OCCCCCOc3no[n+]([O-])c3S(=O)(=O)c3ccccc3)cc2)cc1)CC(O)(Cn1cncn1)c1ccc(F)cc1F (stereo not drawn) | 4 (≈ 4.56 µM) | > 64 | 4 (≈ 4.56 µM) | 4 (≈ 4.56 µM) | –
13 | CN(Cc1ccc(OCCCOc2ccc(CC(=O)OCCCCCO[N+](=O)[O-])cc2)cc1)CC(O)(Cn1cncn1)c1ccc(F)cc1F (stereo not drawn) | 0.5 (≈ 0.717 µM) | > 64 | 0.5 (≈ 0.717 µM) | 1 (≈ 1.43 µM) | –
14 | CC1(C)N(O)C(c2ccccc2)=[N+]([O-])C1(C)C | – | – | – | – | inhibition [16]: inactive
15 | CN(CC(O)(Cn1cncn1)c1ccc(F)cc1F)c1cc(O/N=[N+](\[O-])N2CCC[C@@H]2CO)c([N+](=O)[O-])cc1[N+](=O)[O-] (stereo partly drawn) | 64 (≈ 108 µM) | > 64 | > 64 | > 64 | –
16 | CN(CC(O)(Cn1cncn1)c1ccc(F)cc1F)c1cc(O/N=[N+](\[O-])N2CCCC2)c([N+](=O)[O-])cc1[N+](=O)[O-] (stereo not drawn) | 64 (≈ 114 µM) | > 64 | > 64 | > 64 | –
17 | CN(Cc1ccc(OCCCOc2ccc(CC(=O)O)cc2)cc1)CC(O)(Cn1cncn1)c1ccc(F)cc1F (stereo not drawn) | 2 (≈ 3.53 µM) | – | – | – | Activity [17]: inactive
18 | CN(Cc1ccc(CNCCOc2no[n+]([O-])c2S(=O)(=O)c2ccccc2)cc1)CC(O)(Cn1cncn1)c1ccc(F)cc1F (stereo not drawn) | 2 (≈ 3.05 µM) | 64 (≈ 97.6 µM) | 8 (≈ 12.2 µM) | 64 (≈ 97.6 µM) | –
19 | CN(Cc1ccc(OCCCOc2ccc(CC(=O)O[C@H]3CO[C@H]4[C@@H]3OC[C@H]4O[N+](=O)[O-])cc2)cc1)CC(O)(Cn1cncn1)c1ccc(F)cc1F (stereo partly drawn) | 1 (≈ 1.35 µM) | 8 (≈ 10.8 µM) | 0.5 (≈ 0.676 µM) | 4 (≈ 5.41 µM) | –
20 | CCN(CC)/[N+]([O-])=N/Oc1cc(N(C)CC(O)(Cn2cncn2)c2ccc(F)cc2F)c([N+](=O)[O-])cc1[N+](=O)[O-] (stereo not drawn) | 64 (≈ 113 µM) | > 64 | > 64 | > 64 | –
21 | CN(Cc1ccc(CNCCCOc2no[n+]([O-])c2S(=O)(=O)c2ccccc2)cc1)CC(O)(Cn1cncn1)c1ccc(F)cc1F (stereo not drawn) | 2 (≈ 2.99 µM) | 32 (≈ 47.8 µM) | 8 (≈ 11.9 µM) | 16 (≈ 23.9 µM) | –
22 | CN1CCN(/[N+]([O-])=N/Oc2cc(N(C)CC(O)(Cn3cncn3)c3ccc(F)cc3F)c([N+](=O)[O-])cc2[N+](=O)[O-])CC1 (stereo not drawn) | 64 (≈ 108 µM) | > 64 | > 64 | > 64 | –
23 | CN(Cc1ccc(OCCCOc2ccc(CC(=O)OCc3ccccc3CO[N+](=O)[O-])cc2)cc1)CC(O)(Cn1cncn1)c1ccc(F)cc1F (stereo not drawn) | 0.25 (≈ 0.342 µM) | > 64 | 1 (≈ 1.37 µM) | 1 (≈ 1.37 µM) | –
